The nature of test [1]: Inhibition of recombinant Plasmodium falciparum falcipain 2 after 30 mins by fluorescence assay.
The subject of test [2] is Plasmodium falciparum. Briefly: Antiplasmodial activity against chloroquine-resistant blood stage Plasmodium falciparum Dd2 after 72 hrs by SYBR Green I-based fluorescence assay. Format: functional, organism-based. Conditions: Dd2, 72 h.
The test system of test [3] is Plasmodium falciparum. Description: Antiplasmodial activity against chloroquine-sensitive blood stage Plasmodium falciparum 3D7 after 72 hrs by SYBR Green I-based fluorescence assay. Format: functional, organism-based. The conditions noted are these: 3D7, 72 h.

Drawing on ChEMBL document CHEMBL3120068, “Identification of diverse natural products as falcipain-2 inhibitors through structure-based virtual screening” (Bioorg Med Chem Lett, 2014), this text covers IC50 for 12 compounds.

Turning to `CCCCOC(=O)[C@H]1c2c(/C=C/C(=O)O[C@H](Cc3ccc(O)c(O)c3)C(=O)O)ccc(O)c2O[C@@H]1c1ccc(O)c(O)c1`, the concentration for half-maximal inhibition (IC50) in test [1] turned out to be 3.18 µM.
Turning to `O=C1c2c(O)cc(O)cc2O[C@H](c2cc(O)c(O)c(O)c2)[C@@H]1O`, the half-inhibitory concentration (IC50) was 44.8 µM in test [1], over 50 µM in the test on Plasmodium falciparum [2] and 75.5 µM with Plasmodium falciparum [3].
Taken in the same sequence, the figures for `O=C1c2c(O)cc(O)cc2O[C@@]2(c3ccc(O)cc3)Oc3cc(O)c4c(c3[C@]12O)O[C@H](c1ccc(O)cc1)CC4` were 5.23 µM, 66.7 µM and 60.6 µM.
Taken in the same sequence, the figures for `CCOC(=O)c1c(O)cc(O)c2c1OC(c1ccc(O)cc1)CC2` (configuration not stated) were 9.12 µM, 86.8 µM and 60.3 µM.
Taken in the same sequence, the figures for `COc1cc(O[C@@H]2O[C@H](CO[C@@H]3OC[C@@H](O)[C@H](O)[C@H]3O)[C@@H](O)[C@H](O)[C@H]2O)c2c(=O)cc(-c3ccc(O)cc3)oc2c1` were 17.1 µM, over 500 µM and over 250 µM.
Turning to `COc1cc(-c2oc3cc(O)cc(O)c3c(=O)c2O[C@@H]2O[C@H](COC(C)=O)[C@@H](O)[C@H](O)[C@H]2O)cc(OC)c1O`, the IC50 in test [1] turned out to be 68.2 µM.
In the case of `C[C@@H]1CC[C@H]2[C@@H](C)C(=O)O[C@@H]3O[C@@]4(C)CC[C@@H]1[C@]32OO4` [ARTEMISININ], the IC50 is 0.049 µM in the test with Plasmodium falciparum [2] and 0.04 µM with Plasmodium falciparum [3].
For `COC(=O)[C@@H](Cc1ccc(O)c(O)c1)OC(=O)/C=C/c1ccc(O)c2c1[C@H](C(=O)OC)[C@@H](c1ccc(O)c(O)c1)O2` [DIMETHYL LITHOSPERMATE], in test [1], the half-inhibitory concentration (IC50) turned out to be 3.77 µM.
Still for that read-out and setting: next, `CC(C)C[C@H](NC(=O)[C@H]1O[C@@H]1C(=O)O)C(=O)NCCCCN=C(N)N` [E-64]: 0.017 µM.
Take `C[C@@H]1O[C@@H](O[C@H]2[C@H](O)[C@@H](COC(=O)/C=C/c3ccc(O)c(O)c3)O[C@H]3OC[C@H](c4ccc(O)c(O)c4)O[C@@H]32)[C@H](O)[C@H](O)[C@H]1O` [ISOCRENATOSIDE]: the IC50 in test [1] is 53.1 µM; with Plasmodium falciparum [2], 93.1 µM; in the test on Plasmodium falciparum [3], over 50 µM.
Consider `O=c1c(O[C@@H]2O[C@H](CO)[C@@H](O)[C@H](O)[C@H]2O)c(-c2ccc(O)c(O)c2)oc2cc(O)cc(O)c12` [ISOQUERCETIN], for which the IC50 in test [1] is 15.7 µM; in the test with Plasmodium falciparum [2], 4.05 µM; in the test on Plasmodium falciparum [3], 5.54 µM.
With `O=C1c2c(O)cc(O)cc2O[C@H](c2ccc(O)c(O)c2)[C@H]1O` [TAXIFOLIN], the results for the IC50 (in test [1]; with Plasmodium falciparum [2]; in the test with Plasmodium falciparum [3]) were 56.9 µM, 55 µM and 48.2 µM, respectively.
